Measured values taken from PubChem BioAssay (NCI).
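Interpolation was linear, between the two tested concentrations surrounding the appropriate level; five concentrations were tested over 48 hours in 96-well plates. The concentration for full growth arrest is given as TGI.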

Tests used:
Experiment in all cases: inhibition of tumour cell growth, NCI panel, 48 h
[1] = tested on: SNB-19 CNS
[2] = tested on: RPMI-8226 leukemia
[3] = tested on: TK-10 renal
[4] = tested on: PC-3 prostate
[5] = tested on: RXF 393 renal
[6] = tested on: SR leukemia
[7] = tested on: SF-268 CNS
[8] = tested on: MDA-MB-435

SMILES | TGI [1] [µM] | TGI [2] [µM] | TGI [3] [µM] | TGI [4] [µM] | TGI [5] [µM] | TGI [6] [µM] | TGI [7] [µM] | TGI [8] [µM]
COC(=O)C1CC2(C)C=CC1N(C(=O)OCc1ccccc1)C2 (centres undefined) | > 100 | > 100 | > 100 | > 100 | > 100 | > 100 | > 100 | > 100
COC(=O)c1ccccc1C1CN=NC12Cc1c(ccc3c1CCC3)C2=O (centres undefined) | > 100 | 86 | > 100 | > 100 | > 100 | > 100 | > 100 | 56.2
Cc1cc(S(=O)(=O)Nc2nc3ncccc3[nH]2)c(S)cc1Cl | > 100 | > 100 | > 100 | > 100 | > 100 | > 100 | > 100 | > 100
Cc1ccc(S(=O)(=O)N2C[C@@H]3CC[C@]4(CO[Si](C)(C)C(C)(C)C)N[C@@H](c5ccccc5)[C@H]2[C@H]34)cc1 | > 100 | 46.8 | > 100 | > 100 | 53.1 | > 100 | > 100 | > 100
COc1ccc(-n2c(=O)c3[nH]c(=S)[nH]c3n(-c3ccc(OC)cc3)c2=S)cc1 | – | > 100 | > 100 | > 100 | > 100 | > 100 | > 100 | > 100
NS(=O)(=O)c1nc(S(=O)(=O)O)c2[nH]cnc2n1 | > 100 | > 100 | > 100 | > 100 | > 100 | > 100 | > 100 | > 100
O=C(O)CSc1ccccc1C(=O)O | > 100 | > 100 | 53.5 | > 100 | > 100 | > 100 | > 100 | > 100
CC(=O)O[C@H]1CC[C@@]2(C)C(=CC[C@@H]3[C@@H]2CC[C@]2(C)C(=N/O)/C(=C\c4ccccc4)C[C@@H]32)C1 | > 100 | > 100 | 78.8 | > 100 | 40 | > 42.3 | > 80.8 | > 33.1
O=P1(N2CCOCC2)OCCO1 | > 100 | > 100 | – | > 100 | > 100 | > 100 | > 100 | > 100
COc1cccc(N=N/C(=N/NC(=O)c2ccc(C)cc2)c2ccc(N(CCC#N)CCC#N)cc2OC)c1 | > 100 | > 100 | > 100 | > 100 | > 100 | > 100 | > 100 | > 100
Cn1cnc(N)c(N=O)c1=O | > 10 | > 10 | > 10 | > 10 | > 10 | > 10 | > 10 | > 10
COc1cc2cc(C(=O)N3CC(COS(C)(=O)=O)c4ccc(NC(=O)OCc5ccccc5)cc43)[nH]c2c(OC)c1OC (centres undefined) | > 100 | – | > 100 | > 100 | > 100 | > 100 | > 100 | > 100
O=c1c2c([nH]c3nccn13)CCC2 | > 10 | > 10 | > 10 | > 10 | > 10 | > 10 | > 10 | > 10
O=c1[nH]nc(-c2ccccc2)n1/N=C/c1ccc([N+](=O)[O-])o1 | > 47.2 | 12.8 | > 100 | > 30.3 | 2.63 | > 100 | > 28 | 10.9
CC(=O)n1cc(C2CC23N=C(c2ccccc2)OC3=O)c2ccccc21 (centres undefined) | > 89.7 | 26.2 | 53.8 | 41.5 | 34.6 | 40.3 | 46.3 | 72.9
C=C(C(=O)O[C@H]1C/C(C)=C/CC/C(CO)=C/[C@H]2C(=O)OC(=C)[C@H]12)C(O)CO (some centres undefined) | 43.3 | 4.95 | 20.3 | 22.2 | 25.9 | 6.81 | 39.6 | 26.3
NNC(=O)Nc1nc2ccc(NN)cc2[nH]1 | > 100 | 26.7 | 82.6 | > 100 | 97.2 | 43.2 | > 100 | 54
C/C=C(\C)C(=O)OC1CC(OC(C)=O)C2(C(=O)OC)COC3C2C1(C)C1C2(C(=O)OC)OCC1(C3O)C1(O)C3CC(C4(O)C=COC4O3)C1(C)O2 (centres undefined) | – | > 100 | > 100 | > 100 | > 100 | > 100 | > 100 | > 100
C[C@@H]1[C@@H](C)C(c2ccccc2)O[Si]1(C(C)(C)C)C(C)(C)C (some centres undefined) | 18.3 | 50.3 | 29.9 | 33.1 | 31 | 29.3 | 61.2 | 76.3

SMILES | TGI [1] [µM] | TGI [2] [µM] | TGI [3] [µM] | TGI [4] [µM] | TGI [5] [µM] | TGI [6] [µM] | TGI [7] [µM] | TGI [8] [µM]
CCN1C/C(=C\c2ccc(Cl)cc2)c2nc(N)c(C#N)c(-c3ccc(Cl)cc3)c2C1 | > 100 | > 100 | > 100 | > 100 | > 100 | > 100 | > 100 | > 100
CC(C)(C)OC(=O)NC12C3C4C1C1C2C3C41NC(=O)OC(C)(C)C (centres undefined) | > 100 | – | > 100 | > 100 | 84.4 | > 100 | > 100 | > 100
O=C1c2cc(Cc3ccccc3)c(=O)c(Cc3ccccc3)cc2C(=O)c2cc(Cc3ccccc3)c(=O)c(Cc3ccccc3)cc21 | > 100 | > 100 | > 100 | > 100 | > 100 | > 100 | > 100 | > 100
N#Cc1c(-c2ccc(Cl)cc2)cc(-c2ccc(Nc3ccnc4cc(Cl)ccc34)cc2)[nH]c1=O | > 96.7 | > 100 | > 55.3 | > 100 | > 68 | > 100 | > 100 | > 100
Cn1cccc1-c1ccc(-c2ccc(CO)[se]2)[se]1 | > 100 | 47.7 | > 100 | > 100 | 43.2 | 56.9 | > 100 | 18.7
COc1ccc(C#Cn2nnc3ccccc32)cc1 | > 100 | 85.1 | > 100 | > 100 | > 100 | > 100 | > 100 | > 100
O=C(Nc1sccc1S(=O)(=O)c1ccc(Cl)cc1)c1ccc(F)cc1F | 48.8 | > 100 | 42.7 | > 100 | 46.2 | 40.9 | 42.7 | > 100
C1=C(c2ccccc2)C(N2CCOCC2)Oc2ccccc21 (centres undefined) | > 100 | > 100 | > 100 | > 100 | > 100 | > 100 | > 100 | > 100
CC(C)(C)C1CCC2c3c([nH]c4ccccc34)C3C(=O)N(c4ccc(C#N)cc4)C(=O)C3C2C1 (centres undefined) | > 100 | > 100 | 63.4 | 17.6 | 15.4 | > 100 | 29.3 | > 100
Cc1ccc(S(=O)(=O)NC(CCC(=O)NNc2ccccc2)C(=O)NNc2ccccc2)cc1 (centres undefined) | > 100 | > 100 | 46.5 | > 100 | > 100 | > 100 | > 100 | > 100
Cc1cc(C)c2c(c1)CC1(Cc3cc(C)c(C)cc3C1=O)C2=O (centres undefined) | > 100 | > 100 | > 100 | > 100 | > 100 | > 100 | > 100 | > 100
C1=NCCNCCNCCN=Cc2ccc(cc2)OCc2cccc(n2)COc2ccc1cc2 | > 100 | > 100 | – | > 100 | > 100 | > 100 | > 100 | > 100
CC(C)(C)OC(=O)N/C(C=O)=C\C1CCCCC1 | 76.1 | – | 32.9 | 47.4 | 59.7 | 42.8 | 52.3 | 49.5
CC[C@@]1(O)C(=O)OCc2c1cc1n(c2=O)Cc2c-1nc1ccc(O)cc1c2[Si](C)(C)C(C)(C)C | – | 4.77 | > 92.7 | 2.9 | 0.0378 | < 0.0112 | 0.804 | 1.65
CC(C)(C)OC(=O)[C@@H]1CCC(=O)N1C1(c2ccccc2)c2ccccc2-c2ccccc21 | > 100 | – | > 100 | > 100 | 32.2 | 62.3 | > 100 | > 100
Nc1ccc(-c2nc3ccccc3s2)cc1Cl | > 100 | > 100 | – | > 100 | > 94.2 | > 100 | > 100 | > 100
Cn1nc2ccc(Nc3cc(=O)[nH]c4ccc5nn(C)nc5c34)cc2n1 | > 100 | – | > 100 | > 100 | > 100 | > 100 | > 100 | > 100
CC1=NN(c2cccc(Cl)c2)C2(C1=Cc1ccc(O)cc1)C(Cl)C(=O)N2c1nc2ccccc2s1 (centres undefined) | – | 55.8 | > 100 | 51.9 | 47.9 | 57.7 | 86 | 83.4
